Source: a compilation of properties of binary mixtures (doi:10.1021/je00020a016)

Test: excess molar enthalpy (molar enthalpy of mixing); xn = mol fraction of the nth substance listed
Settings: 100 kPa

CC1COC(=O)O1 (stereo not drawn) + COC(=O)OC
Settings	excess molar enthalpy [kcal/mol]
298.15 K, x1 = 0.0474	0.0131
298.15 K, x1 = 0.0905	0.0203
298.15 K, x1 = 0.1106	0.0227
298.15 K, x1 = 0.1428	0.0253
298.15 K, x1 = 0.1993	0.0272
298.15 K, x1 = 0.2491	0.0272
298.15 K, x1 = 0.3989	0.0244
298.15 K, x1 = 0.4988	0.0217
298.15 K, x1 = 0.5989	0.0184
298.15 K, x1 = 0.6656	0.0158
298.15 K, x1 = 0.7491	0.0127
298.15 K, x1 = 0.7993	0.0103
298.15 K, x1 = 0.8566	0.00741
298.15 K, x1 = 0.8884	0.0055
298.15 K, x1 = 0.9228	0.00382
298.15 K, x1 = 0.9598	0.00191
313.15 K, x1 = 0.0658	0.0217
313.15 K, x1 = 0.1429	0.0284
313.15 K, x1 = 0.2001	0.0296
313.15 K, x1 = 0.2502	0.0294
313.15 K, x1 = 0.3335	0.0284
313.15 K, x1 = 0.4002	0.0268
313.15 K, x1 = 0.5002	0.0232
313.15 K, x1 = 0.6003	0.0191
313.15 K, x1 = 0.6669	0.0167
313.15 K, x1 = 0.7502	0.0129
313.15 K, x1 = 0.8001	0.0108
313.15 K, x1 = 0.8563	0.00813
313.15 K, x1 = 0.889	0.00598
313.15 K, x1 = 0.96	0.00215

CCOC(=O)OCC + COC(=O)OC
excess molar enthalpy [kcal/mol]
Settings	298.15 K	313.15 K
x2 = 0.0565	0.00765	0.00645
x2 = 0.107	0.0148	–
x2 = 0.1522	–	0.0179
x2 = 0.1932	–	0.0213
x2 = 0.1934	0.0234	–
x2 = 0.2643	–	0.0272
x2 = 0.3241	0.0349	–
x2 = 0.4181	–	0.0368
x2 = 0.4892	–	0.0387
x2 = 0.5896	–	0.0387
x2 = 0.6831	–	0.0349
x2 = 0.6834	0.0373	–
x2 = 0.7418	–	0.0315
x2 = 0.7421	0.0335	–
x2 = 0.8117	–	0.0265
x2 = 0.8119	0.027	–
x2 = 0.8518	–	0.021
x2 = 0.8962	0.017	–
x2 = 0.8995	–	0.0158
x2 = 0.92	–	0.0124
x2 = 0.9201	0.0141	–
x2 = 0.9453	0.00932	–
x2 = 0.9718	–	0.00454
x2 = 0.9719	0.00478	–

CCOC(=O)OCC + CC1COC(=O)O1
excess molar enthalpy [kcal/mol]
Settings	298.15 K	313.15 K
x2 = 0.0482	–	0.0351
x2 = 0.0668	0.033	–
x2 = 0.0919	–	0.0559
x2 = 0.1066	0.0504	–
x2 = 0.1518	0.0631	–
x2 = 0.1528	–	0.0698
x2 = 0.1926	0.07	–
x2 = 0.1933	–	0.0755
x2 = 0.2623	0.0784	–
x2 = 0.2644	–	0.0846
x2 = 0.3231	0.0593	–
x2 = 0.4172	0.0605	–
x2 = 0.4183	–	0.0915
x2 = 0.4884	0.0822	–
x2 = 0.4895	–	0.0894
x2 = 0.5888	0.0765	–
x2 = 0.6824	0.066	–
x2 = 0.742	0.0583	0.0607
x2 = 0.8118	0.0452	–
x2 = 0.8519	0.0373	0.0387
x2 = 0.8962	0.0263	0.0284
x2 = 0.9452	0.0139	0.0151
x2 = 0.9718	0.00765	0.00789
